Results: patent US10968193B2, “Antidiabetic bicyclic compounds” (Merck Sharp & Dohme Corp., priority 2014, dated 2021)
pEC50: −log10 of the molar value.

Molecular target: T1, human GPR40 (Homo sapiens, UniProt O14842)
T1 construct: expressed in transfected cells; host or cells: HEK cells stably expressing the aequorin reporter
Assay: Inositol Phosphate Turnover (IP1) Assay 3
Type: cell-based
Details: HEK cells stably expressing human GPR40
Experimental: Human and mouse GPR40 stable cell-lines were generated in CHO cells stably expressing NFAT BLA (Beta-lactamase). A human GPR40 stable cell-line was generated in HEK cells stably expressing the aequorin expressing reporter. The expression plasmids were transfected using lipofectamine (Life Technologies) following manufacturer's instructions. Stable cell-lines were generated following drug selection.
Inositol Phosphate Turnover (IP1) Assay 3:
The assay was performed in 384-well format. HEK cells stably expressing human GPR40 were plated at 7500 cells per well in growth medium (DMEM/10% fetal calf serum). Cell plates were then incubated 16 hours at 37 degrees in a 5% CO2 incubator.
Measurement of Inositol Phosphate Turnover (IP) was performed using the CisBio IP-One kit (Part number 62IPAPEB). After the 16 hour incubation, the growth media was removed by centrifugation using the BlueWasher (AusWasher GUI Ver. v1.0.1.8) Protocol #21—“Light Dry” and 10 ul of stimulation buffer (prepared as described in the kit) was added to each well. In a separate plate, compounds were diluted in DMSO (200-fold over the final concentration in the assay well) and 50 nl was acoustically transferred to the appropriate well in the assay cell plate. The plates were then incubated for 60 minutes at 37 degrees in a 5% CO2 incubator. 10 ul of detection buffer (also prepared as described in the IP-One kit) was added to each well and the plates were incubated at rt for 60 minutes in the dark. The plates were then read in a Perkin Elmer EnVision or equivalent reader able to measure FRET. Fluorescent ratio of emission at 665 and 620 nm was then converted to IP1 concentration by back calculating from an IP1 standard curve prepared at the time of the assay. Data is normalized to % activity using a reference compound and EC50s determined using a standard 4-parameter fit.

T1 sequence (O14842 whole entry): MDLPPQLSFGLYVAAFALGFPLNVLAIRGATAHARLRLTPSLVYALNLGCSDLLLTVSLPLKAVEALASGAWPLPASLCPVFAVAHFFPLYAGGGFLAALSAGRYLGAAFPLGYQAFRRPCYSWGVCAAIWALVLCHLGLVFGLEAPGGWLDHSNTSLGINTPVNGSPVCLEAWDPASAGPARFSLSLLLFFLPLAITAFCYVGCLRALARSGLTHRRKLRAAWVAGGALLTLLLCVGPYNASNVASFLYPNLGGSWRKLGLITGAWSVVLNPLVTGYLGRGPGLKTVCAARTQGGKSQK

| Structure (SMILES) | pEC50 |
| --- | --- |
| COc1cc(-c2ccc(C3CCc4ccc([C@H](C5CC5)[C@H](C)C(=O)O)cc4O3)c(CN3[C@H](C)CC[C@H]3C)c2)ccn1 (single isomer, unassigned) [Example 116d] | 6.41 |
| COc1cc(-c2ccc(C3CCc4ccc([C@H](C5CC5)[C@H](C)C(=O)O)cc4O3)c(CN3CCCCC3(C)C)c2)ccn1 (single isomer, unassigned) [Example 117a] | 9.40 |
| COc1cc(-c2ccc(C3CCc4ccc([C@H](C5CC5)[C@H](C)C(=O)O)cc4O3)c(CN3CCCCC3(C)C)c2)ccn1 (single isomer, unassigned) [Example 117b] | 7.62 |
| COc1cc(-c2ccc(C3CCc4ccc([C@H](C5CC5)[C@H](C)C(=O)O)cc4O3)c(CN3CCC[C@@H]3C)c2)ccn1 (single isomer, unassigned) [Example 118a] | 9.22 |
| COc1cc(-c2ccc(C3CCc4ccc([C@H](C5CC5)[C@H](C)C(=O)O)cc4O3)c(CN3CCC[C@@H]3C)c2)ccn1 (single isomer, unassigned) [Example 118b] | 6.96 |
| COc1cc(-c2ccc(C3CCc4ccc([C@H](C5CC5)[C@H](C)C(=O)O)cc4O3)c(CN3CCC[C@H]3C)c2)ccn1 (single isomer, unassigned) [Example 119a] | 6.51 |
| COc1cc(-c2ccc(C3CCc4ccc([C@H](C5CC5)[C@H](C)C(=O)O)cc4O3)c(CN3CCC[C@H]3C)c2)ccn1 (single isomer, unassigned) [Example 119b] | 8.38 |
| COc1cc(-c2ccc(C3CCc4ccc([C@H](C5CC5)[C@H](C)C(=O)O)cc4O3)c(CN3CCCC[C@H]3C)c2)ccn1 (single isomer, unassigned) [Example 120a] | 9.40 |
| COc1cc(-c2ccc(C3CCc4ccc([C@H](C5CC5)[C@H](C)C(=O)O)cc4O3)c(CN3CCCC[C@H]3C)c2)ccn1 (single isomer, unassigned) [Example 120b] | 7.39 |
| CCOc1cc(-c2ccc(C3CCc4ccc([C@H](C5CC5)[C@H](C)C(=O)O)cc4O3)c(CN3CCC[C@@H]3C)c2)c(F)cn1 (single isomer, unassigned) [Example 133] | 9.10 |
| CCOc1cc(-c2ccc(C3CCc4ccc([C@H](C5CC5)[C@H](C)C(=O)O)cc4O3)cc2CN(CC)CC)c(F)cn1 (single isomer, unassigned) [Example 171, (2S, 3R)-3-cyclopropyl-3-((R or S)-2-(3-((diethylamino)methyl)-4-(2-ethoxy-5-fluoropyridin-4-yl)phenyl)chroman-7-yl)-2-methylpropanoic acid] | 8.60 |
| CCOc1cc(-c2ccc(C3CCc4ccc([C@H](C5CC5)[C@H](C)C(=O)O)cc4O3)cc2CN(CC)CC)c(F)cn1 (single isomer, unassigned) [Example 172, (2S, 3R)-3-cyclopropyl-3-((S or R)-2-(3-((diethylamino)methyl)-4-(2-ethoxy-5-fluoropyridin-4-yl)phenyl)chroman-7-yl)-2-methylpropanoic acid] | 8.64 |
| CCOc1cc(-c2ccc(C3CCc4ccc([C@H](C5CC5)[C@H](C)C(=O)O)cc4O3)cc2CN2CCCC2)c(F)cn1 (single isomer, unassigned) [Example 173] | 7.30 |
| CCOc1cc(-c2ccc(C3CCc4ccc([C@H](C5CC5)[C@H](C)C(=O)O)cc4O3)cc2CN2CCCC2)c(F)cn1 (single isomer, unassigned) [Example 174] | 7.57 |

Results, then the compound that gave them:

| pEC50 | Structure (SMILES) |
| --- | --- |
| 8.48 | COc1cc(-c2ccc(C3CCc4ccc([C@H](C5CC5)[C@H](C)C(=O)O)cc4O3)c(CN3[C@H](C)CC[C@@H]3C)c2)ccn1 (single isomer, unassigned) [Example 122a] |
| 6.72 | COc1cc(-c2ccc(C3CCc4ccc([C@H](C5CC5)[C@H](C)C(=O)O)cc4O3)c(CN3[C@H](C)CC[C@@H]3C)c2)ccn1 (single isomer, unassigned) [Example 122b] |
| 7.04 | COc1cc(-c2ccc(C3CCc4ccc([C@H](C5CC5)[C@H](C)C(=O)O)cc4O3)c(CN3CCCC3)c2)c(F)cn1 (single isomer, unassigned) [Example 123a] |
| 8.85 | COc1cc(-c2ccc(C3CCc4ccc([C@H](C5CC5)[C@H](C)C(=O)O)cc4O3)c(CN3CCCC3)c2)c(F)cn1 (single isomer, unassigned) [Example 123b] |
| 10.05 | CCN(Cc1cc(-c2cc(OC)ncc2F)ccc1C1CCc2ccc([C@H](C3CC3)[C@H](C)C(=O)O)cc2O1)C(C)C (single isomer, unassigned) [Example 124a] |
| 7.80 | CCN(Cc1cc(-c2cc(OC)ncc2F)ccc1C1CCc2ccc([C@H](C3CC3)[C@H](C)C(=O)O)cc2O1)C(C)C (single isomer, unassigned) [Example 124b] |
| 9.52 | COc1cc(-c2ccc(C3CCc4ccc([C@H](C5CC5)[C@H](C)C(=O)O)cc4O3)c(CN(C)C(C)(C)C)c2)c(F)cn1 (single isomer, unassigned) [Example 125a] |
| 7.92 | COc1cc(-c2ccc(C3CCc4ccc([C@H](C5CC5)[C@H](C)C(=O)O)cc4O3)c(CN(C)C(C)(C)C)c2)c(F)cn1 (single isomer, unassigned) [Example 125b] |
| 10.30 | COc1cc(-c2ccc(C3CCc4ccc([C@H](C5CC5)[C@H](C)C(=O)O)cc4O3)c(CN(C(C)C)C(C)C)c2)c(F)cn1 (single isomer, unassigned) [Example 126a] |
| 8.57 | COc1cc(-c2ccc(C3CCc4ccc([C@H](C5CC5)[C@H](C)C(=O)O)cc4O3)c(CN(C(C)C)C(C)C)c2)c(F)cn1 (single isomer, unassigned) [Example 126b] |
| 10.15 | COc1cc(-c2ccc(C3CCc4ccc([C@H](C5CC5)[C@H](C)C(=O)O)cc4O3)c(CN3CCCCC3(C)C)c2)c(F)cn1 (single isomer, unassigned) [Example 128a] |
| 8.92 | COc1cc(-c2ccc(C3CCc4ccc([C@H](C5CC5)[C@H](C)C(=O)O)cc4O3)c(CN3CCCCC3(C)C)c2)c(F)cn1 (single isomer, unassigned) [Example 128b] |
| 9.60 | COc1cc(-c2ccc(C3CCc4ccc([C@H](C5CC5)[C@H](C)C(=O)O)cc4O3)c(CN3CCC[C@@H]3C)c2)c(F)cn1 (single isomer, unassigned) [Example 129a] |
| 7.44 | COc1cc(-c2ccc(C3CCc4ccc([C@H](C5CC5)[C@H](C)C(=O)O)cc4O3)c(CN3CCC[C@@H]3C)c2)c(F)cn1 (single isomer, unassigned) [Example 129b] |
| 8.06 | COc1cc(-c2ccc(C3CCc4ccc([C@H](C5CC5)[C@H](C)C(=O)O)cc4O3)c(CN3CCCC[C@H]3C)c2)c(F)cn1 (single isomer, unassigned) [Example 130a] |
| 10.22 | COc1cc(-c2ccc(C3CCc4ccc([C@H](C5CC5)[C@H](C)C(=O)O)cc4O3)c(CN3CCCC[C@H]3C)c2)c(F)cn1 (single isomer, unassigned) [Example 130b] |
| 8.74 | CCOc1cc(-c2ccc(C3CCc4ccc([C@H](C5CC5)[C@H](C)C(=O)O)cc4O3)c(CN(C)C(C)(C)C)c2)c(F)cn1 (single isomer, unassigned) [Example 132a] |
| 6.97 | CCOc1cc(-c2ccc(C3CCc4ccc([C@H](C5CC5)[C@H](C)C(=O)O)cc4O3)c(CN(C)C(C)(C)C)c2)c(F)cn1 (single isomer, unassigned) [Example 132b] |
